The results in this text go back to patent US20240287025A1, “TETRAHYDROQUINOLINE (THQ) COUMPOUNDS” (Centre National de la Recherche Scientifique, priority 2021, published 2024).

In one test the target is Brd4 BD2 (Homo sapiens (Human), UniProt O60885). Briefly: HTRF evaluation of bromodomain inhibitors, Brd4 BD2. Particulars: for IC50: HTRF, H4ac4 peptide 600 nM, 24 h at 4° C.; for Selectivity BD2/BD1: ratio of the BD1 and BD2 IC50. It is filed as binding. Here is the method:
(§1) HTRF reagents and buffers were purchased from Cisbio Bioassays. The assay used a terbium (Ill) cryptate donor reagent conjugated to an anti-GST antibody (MAb anti-GST-Tb; GSTTLA), a streptavidin-conjugated acceptor reagent (streptavidin-d2) and Cisbio proprietary buffers (EPlgeneous Binding Domain Diluent and Detection buffer, respectively). GST-tagged bromodomains (BDs) were expressed in E. coli and purified using standard procedures. Incubation of GST-tagged BDs with biotinylated acetylated H4 peptide (H4K5acK8acK12acK16ac, here named H4ac4) brings the donor and acceptor into close proximity and allows for a FRET reaction. GST-tagged proteins in 25 mM Hepes pH 7.5, 150 mM NaCl, 0.5 mM DTT were assayed at a final concentration of 5 nM. Biotinylated H4ac4 peptides were used at a final concentration of 50, 600 nM in assays involving Brd4 BD1, Brd4 BD2, respectively. The antibody-conjugated donor was used at 0.5 nM and the streptavidin-conjugated acceptor was used at ⅛ of the H4ac4 peptide concentration. Inhibitors were tested by performing an eleven-point dilution series with a maximal final concentration of […]. These concentrations allowed a fixed DMSO concentration at 0.2%, critical for a Z′ factor ≥0.8. Components were incubated at 4° C. for 4 h (BD1) or for 24 h (BD2). Experiments were performed in 384-well white plates (Greiner ref. 781080) and analyzed in a ClarioStar plate reader (BMG LABTECH, excitation at 330 nm and emission at 620 and 665 nm, corresponding to the donor and acceptor emission peaks, respectively; the 665/620 ratio is used to calculate the specific HTRF signal) with an integration delay of 60 μs and an integration time of 400 μs.

For a further test, the target named is Brd4 BD1 (Homo sapiens (Human), UniProt O60885). Briefly: HTRF evaluation of bromodomain inhibitors, Brd4 BD1. It is filed as binding. Particulars: H4ac4 peptide 50 nM, 4 h at 4° C. Here is the method:
as §1

Molecules are shown by their SMILES.

In the case of `CC[C@H]1[C@@H](C)[C@H](n2cc(COCCOCCOCCOCCOCCOCC#Cc3cccc4c3CN(C3CCC(=O)NC3=O)C4=O)nn2)c2cc(C(=O)OC)ccc2N1C(C)=O` (stereo partly drawn) [YG, Methyl-(2S,3R,4S)-1-acetyl-4-(4-(20-(2-(2,6-dioxopiperidin-3-yl)-1-oxoisoindolin-4-yl)-2,5,8,11,14,17-hexaoxaicos-19-yn-1-yl)-1H-1,2,3-triazol-1-yl)-2-ethyl-3-methyl-1,2,3,4-tetrahydroquinoline-6-carboxylate], the IC50 – broadly, the concentration that gives 50% inhibition – on Brd4 BD2 is 1360 nM; against Brd4 BD1, greater than 20000 nM.
Take `CC[C@H]1[C@@H](C)[C@H](N=[N+]=[N-])c2cc(C(=O)OC)ccc2N1C(C)=O` [Compound 27, Methyl-(2S,3R,4S)-1-acetyl-4-azido-2-ethyl-3-methyl-1,2,3,4-tetrahydroquinoline-6-carboxylate]: on Brd4 BD2, the half-inhibitory concentration (IC50) came to 1880 nM and the “Selectivity BD2/BD1” value turned out to be 9.4. In addition, the IC50 against Brd4 BD1 is 17700 nM.
Take `C#CCOCCOCCOCCOCc1cn([C@H]2c3cc(C(=O)OC)ccc3N(C(C)=O)[C@@H](CC)[C@@H]2C)nn1` [Compound 32, Methyl-(2S,3S,4R)-4-(4-(2,5,8,11-tetraoxatetradec-13-yn-1-yl)-1H-1,2,3-triazol-1-yl)-1-acetyl-2-ethyl-3-methyl-1,2,3,4-tetrahydroquinoline-6-carboxylate]: the IC50 against Brd4 BD2 and against Brd4 BD1 was greater than 20000 nM each time.
On to `C#CCOCCOCCOCCOCCOCCOCc1cn([C@@H]2c3cc(C(=O)OC)ccc3N(C(C)=O)[C@@H](CC)[C@H]2C)nn1` [XT, Methyl-(2S,3R,4S)-4-(4-(2,5,8,11,14,17-hexaoxaicos-19-yn-1-yl)-1H-1,2,3-triazol-1-yl)-1-acetyl-2-ethyl-3-methyl-1,2,3,4-tetrahydroquinoline-6-carboxylate], for which, at Brd4 BD2, half-maximal inhibition (IC50) was put at 2040 nM and the “Selectivity BD2/BD1” value amounted to 17.2. In addition, the IC50 at Brd4 BD1 was roughly 35000 nM.
Turning to `C=CCCCC(=O)Nc1ccc(-c2ccc3c(c2)[C@H](n2cc(-c4ccccc4)nn2)[C@@H](C)[C@@H](CC)N3C(C)=O)cc1` [ent-XD], at Brd4 BD2, the IC50 was 677 nM and the “Selectivity BD2/BD1” value is listed as 3.4. Further, the IC50 against Brd4 BD1 came out at 2300 nM.
With `C=CCCCC(=O)Nc1ccc(-c2ccc3c(c2)[C@@H](Nc2ncc(Cl)cn2)[C@H](C)[C@H](CC)N3C(C)=O)cc1` [XK, N-(4-((2S,3S,4S)-1-acetyl-4-((5-chloropyrimidin-2-yl)amino)-2-ethyl-3-methyl-1,2,3,4-tetrahydroquinolin-6-yl)phenyl)hex-5-enamide], on Brd4 BD2, the IC50 stood at 1330 nM and the “Selectivity BD2/BD1” value is listed as 2.4. At Brd4 BD1, the IC50 was 3140 nM.
Regarding `CC[C@H]1[C@@H](C)[C@H](NC(=O)OC(C)C)c2cc(C(=O)OC)ccc2N1C(C)=O` [XJ, Methyl-(2S,3S,4S)-1-acetyl-2-ethyl-4-((isopropoxycarbonyl)amino)-3-methyl-1,2,3,4-tetrahydroquinoline-6-carboxylate], the figures for the IC50 against Brd4 BD2 and against Brd4 BD1 were 1880 nM and 24200 nM, respectively. In addition, at Brd4 BD2, the “Selectivity BD2/BD1” value is on record as 12.8.
For `CC[C@H]1[C@H](C)[C@@H](N=[N+]=[N-])c2cc(C(=O)OC)ccc2N1C(C)=O` [Compound 30, Methyl-(2S,3S,4R)-1-acetyl-4-azido-2-ethyl-3-methyl-1,2,3,4-tetrahydroquinoline-6-carboxylate], the IC50 at Brd4 BD2 and on Brd4 BD1 was greater than 20000 nM throughout.
Turning to `C#CCOCCOCCOCCOCc1cn([C@@H]2c3cc(C(=O)OC)ccc3N(C(C)=O)[C@@H](CC)[C@H]2C)nn1` [XR, Methyl-(2S,3R,4S)-4-(4-(2,5,8,11-tetraoxatetradec-13-yn-1-yl)-1H-1,2,3-triazol-1-yl)-1-acetyl-2-ethyl-3-methyl-1,2,3,4-tetrahydroquinoline-6-carboxylate], the figures for the IC50 on Brd4 BD2 and against Brd4 BD1 were 2360 nM and greater than 100000 nM, respectively.
Turning to `CC[C@H]1[C@@H](C)[C@H](n2nnc3c2CCC2C(CO)C2CC3)c2cc(C(=O)OC)ccc2N1C(C)=O` (stereo partly drawn) [YI, Methyl-(2S,3R,4S)-1-acetyl-2-ethyl-4-(6-(hydroxymethyl)-5,5a,6,6a,7,8-hexahydrocyclopropa[5,6]cycloocta[1,2-d][1,2,3]triazol-1(4H)-yl)-3-methyl-1,2,3,4-tetrahydroquinoline-6-carboxylate], on Brd4 BD2, 798 nM corresponded to half-maximal inhibition (IC50) and the “Selectivity BD2/BD1” value is 42.1. Further, half-maximal inhibition against Brd4 BD1 (IC50) required 33600 nM.
For `CC[C@H]1[C@@H](C)[C@H](n2cc(COCCOCCOCc3cn(C4c5cc(C(=O)OC)ccc5N(C(C)=O)[C@@H](CC)[C@H]4C)nn3)nn2)c2cc(C(=O)OC)ccc2N1C(C)=O` (stereo partly drawn) [XV, Dimethyl-4,4′-((((oxybis(ethane-2,1-diyl))bis(oxy))bis(methylene))bis(1H-1,2,3-triazole-4,1-diyl))(2S,2'S,3R,3′R,4S,4'S)-bis(1-acetyl-2-ethyl-3-methyl-1,2,3,4-tetrahydroquinoline-6-carboxylate)], on Brd4 BD2, inhibition was half-maximal at 2430 nM (IC50) and the “Selectivity BD2/BD1” value worked out at 0.7. On Brd4 BD1, this compound registered an IC50 of 1670 nM.
Regarding `C=CCCCC(=O)Nc1ccc(-c2ccc3c(c2)[C@@H](n2cc(CCCCC)nn2)[C@H](C)[C@H](CC)N3C(C)=O)cc1` [XE, N-(4-((2S,3R,4S)-1-acetyl-2-ethyl-3-methyl-4-(4-pentyl-1H-1,2,3-triazol-1-yl)-1,2,3,4-tetrahydroquinolin-6-yl)phenyl)hex-5-enamide], on Brd4 BD2, the half-maximal inhibitory concentration (IC50) was determined as 3180 nM and the “Selectivity BD2/BD1” value was 1.3. 4080 nM corresponded to half-maximal inhibition on Brd4 BD1 (IC50).
For `CCCCCc1cn([C@@H]2c3cc(C(=O)OC)ccc3N(C(C)=O)[C@@H](CC)[C@H]2C)nn1` [XF, Methyl (2S,3R,4S)-1-acetyl-2-ethyl-3-methyl-4-(4-pentyl-1H-1,2,3-triazol-1-yl)-1,2,3,4-tetrahydroquinoline-6-carboxylate] the same measures were 1930 nM, 15.6 and 30000 nM.
Consider `CC[C@H]1[C@@H](C)[C@H](n2cc(COCCOCCOCCOCC#Cc3cccc4c3CN(C3CCC(=O)NC3=O)C4=O)nn2)c2cc(C(=O)OC)ccc2N1C(C)=O` (stereo partly drawn) [YF, Methyl-(2S,3R,4S)-1-acetyl-4-(4-(14-(2-(2,6-dioxopiperidin-3-yl)-1-oxoisoindolin-4-yl)-2,5,8,11-tetraoxatetradec-13-yn-1-yl)-1H-1,2,3-triazol-1-yl)-2-ethyl-3-methyl-1,2,3,4-tetrahydroquinoline-6-carboxylate], for which, at Brd4 BD2, the IC50 worked out at 1330 nM and the “Selectivity BD2/BD1” value is given as 12.7. Half-maximal inhibition against Brd4 BD1 (IC50) required 17000 nM.
For `CC[C@H]1[C@@H](C)[C@H](Nc2ncc(Cl)cn2)c2cc(C(=O)OC)ccc2N1C(C)=O` [XL, Methyl (2S,3S,4S)-1-acetyl-4-((5-chloropyrimidin-2-yl)amino)-2-ethyl-3-methyl-1,2,3,4-tetrahydroquinoline-6-carboxylate], the IC50 worked out at 1130 nM at Brd4 BD2 and 10100 nM at Brd4 BD1. For the same compound, on Brd4 BD2, the “Selectivity BD2/BD1” value worked out at 9.0.
For `C#CCOCCOCc1cn([C@@H]2c3cc(C(=O)OC)ccc3N(C(C)=O)[C@@H](CC)[C@H]2C)nn1` [XP, Methyl-(2S,3R,4S)-1-acetyl-2-ethyl-3-methyl-4-(4-((2-(prop-2-yn-1-yloxy)ethoxy)methyl)-1H-1,2,3-triazol-1-yl)-1,2,3,4-tetrahydroquinoline-6-carboxylate] the same measures were 2260 nM, roughly 30000 nM and 13.2.
As for `C=CCCCC(=O)Nc1ccc(-c2ccc3c(c2)[C@@H](NC(=O)OC(C)C)[C@H](C)[C@H](CC)N3C(C)=O)cc1` [XI, Isopropyl-((2S,3S,4S)-1-acetyl-2-ethyl-6-(4-(hex-5-enamido)phenyl)-3-methyl-1,2,3,4-tetrahydroquinolin-4-yl)carbamate], the figures for the IC50 at Brd4 BD2 and against Brd4 BD1 were 2170 nM and 2680 nM, respectively. For the same compound, the “Selectivity BD2/BD1” value at Brd4 BD2 stood at 1.2.
For `CC[C@H]1[C@@H](C)[C@H](n2cc(-c3ccc(OC)cc3)nn2)c2cc(C(=O)OC)ccc2N1C(C)=O` [XM, Methyl (2S,3R,4S)-1-acetyl-2-ethyl-4-(4-(4-methoxyphenyl)-1H-1,2,3-triazol-1-yl)-3-methyl-1,2,3,4-tetrahydroquinoline-6-carboxylate], on Brd4 BD2, half-maximal inhibition (IC50) required 563 nM and the “Selectivity BD2/BD1” value was found to be 5.3. The same compound displayed an IC50 against Brd4 BD1 of 2980 nM.
At Brd4 BD2, `CC[C@H]1[C@@H](C)[C@H](n2cc(-c3ccccc3)nn2)c2cc(C(F)(F)F)ccc2N1C(C)=O` [YC, 1-((2S,3R,4S)-2-Ethyl-3-methyl-4-(4-phenyl-1H-1,2,3-triazol-1-yl)-6-(trifluoromethyl)-3,4-dihydroquinolin-1(2H)-yl)ethan-1-one] displayed an IC50 of 22500 nM.
As for `CC[C@H]1[C@@H](C)[C@H](N=[N+]=[N-])c2cc(-c3ccc(NC(=O)CCCCCCC(=O)NO)cc3)ccc2N1C(C)=O` [YH, N-(4-((2S,3R,4S)-1-acetyl-4-azido-2-ethyl-3-methyl-1,2,3,4-tetrahydroquinolin-6-yl)phenyl)-N-hydroxyoctanediamide], the “Selectivity BD2/BD1” value on Brd4 BD2 worked out at 1.6.
